Numbered stars: 1 amine (or outer) side, 2 acyl side, 3 side chain; on linkers, the order of the positions; unused ones are H or OH. Side chains are listed from the residue outwards. Peptide text beside a SMILES is read from it. * marks the point of attachment. C18 diacid = O=C(O)CCCCCCCCCCCCCCCCC(=O)*; C16 diacid = O=C(O)CCCCCCCCCCCCCCC(=O)*; γGlu = O=C(O)[C@H](CCC(=O)[*:2])N[*:1]; AEEA = NCCOCCOCC(=O)O
Key:
glucagon receptor = biological target: T1, glucagon receptor (Homo sapiens, UniProt P47871); experiment: Assay (I) Glucagon activity (cAMP biosensor, FLIPR); assay type: cell-based
T1 construct: expressed in transfected cells

[1] = Assay (X) Chemical stability assessment by RP-UPLC; assay type: physicochemical; conditions: pH 8.15, 14 days at 37° C. vs 5° C., 333 μM

T1 sequence (P47871 26-477): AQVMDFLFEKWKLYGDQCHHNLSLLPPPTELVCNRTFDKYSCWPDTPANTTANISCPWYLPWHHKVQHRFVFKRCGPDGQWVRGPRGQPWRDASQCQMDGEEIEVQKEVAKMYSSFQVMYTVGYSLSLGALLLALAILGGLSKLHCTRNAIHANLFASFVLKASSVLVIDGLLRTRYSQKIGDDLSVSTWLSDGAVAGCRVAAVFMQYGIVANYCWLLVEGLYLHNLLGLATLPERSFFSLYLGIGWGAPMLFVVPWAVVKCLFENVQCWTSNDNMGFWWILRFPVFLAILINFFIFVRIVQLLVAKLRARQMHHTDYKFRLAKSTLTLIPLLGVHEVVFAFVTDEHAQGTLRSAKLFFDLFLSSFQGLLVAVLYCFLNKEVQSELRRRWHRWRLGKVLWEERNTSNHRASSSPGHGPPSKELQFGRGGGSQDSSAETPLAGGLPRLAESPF

Compound	EC50 (glucagon receptor)	Chemical stability [Purity loss/14 days 37 C.] [1]
CC(C)C[C@H](NC(=O)[C@H](Cc1ccc(O)cc1)NC(=O)[C@H](CCCCN)NC(=O)[C@H](CO)NC(=O)[C@H](Cc1ccc(O)cc1)NC(=O)[C@H](CC(=O)O)NC(=O)[C@H](CO)NC(=O)[C@@H](NC(=O)[C@H](Cc1ccccc1)NC(=O)[C@@H](NC(=O)CNC(=O)[C@H](CCC(N)=O)NC(=O)[C@H](CO)NC(=O)[C@@H](N)Cc1c[nH]cn1)[C@@H](C)O)[C@@H](C)O)C(=O)N[C@@H](CC(=O)O)C(=O)N[C@@H](C)C(=O)N[C@@H](CCCNC(=N)N)C(=O)N[C@@H](CCCNC(=N)N)C(=O)N[C@@H](C)C(=O)N[C@@H](CCC(N)=O)C(=O)N[C@@H](CC(=O)O)C(=O)N[C@@H](Cc1ccccc1)C(=O)N[C@H](C(=O)N[C@@H](CCCCNC(=O)CC[C@H](NC(=O)CC[C@H](NC(=O)COCCOCCNC(=O)COCCOCCNC(=O)CC[C@H](NC(=O)CCCCCCCCCCCCCCC(=O)O)C(=O)O)C(=O)O)C(=O)O)C(=O)N[C@@H](Cc1c[nH]c2ccccc12)C(=O)N[C@@H](CC(C)C)C(=O)N[C@@H](CC(C)C)C(=O)N[C@@H](CO)C(=O)N[C@H](C(=O)O)[C@@H](C)O)C(C)C [Example 83, N^ε24-[(4S)-4-carboxy-4-[[(4S)-4-carboxy-4-[[2-[2-[2-[[2-[2-[2-[[(4S)-4-carboxy-4-(15-carboxypentadecanoylamino)butanoyl]amino]ethoxy]ethoxy]acetyl]amino]ethoxy]ethoxy]acetyl]amino]butanoyl]amino]butanoyl]-[Ala16,Lys24,Leu27,Ser28]-Glucagon]	0.016 nM	10.3%
CC(C)C[C@H](NC(=O)[C@H](Cc1ccc(O)cc1)NC(=O)[C@H](CCCNC(=N)N)NC(=O)[C@H](CO)NC(=O)[C@H](Cc1ccc(O)cc1)NC(=O)[C@H](CC(=O)O)NC(=O)[C@H](CO)NC(=O)[C@@H](NC(=O)[C@H](Cc1ccccc1)NC(=O)[C@@H](NC(=O)CNC(=O)[C@H](CCC(N)=O)NC(=O)[C@H](CO)NC(=O)[C@@H](N)Cc1c[nH]cn1)[C@@H](C)O)[C@@H](C)O)C(=O)N[C@@H](CC(=O)O)C(=O)N[C@@H](C)C(=O)N[C@@H](CCCNC(=N)N)C(=O)N[C@@H](CCCNC(=N)N)C(=O)N[C@@H](C)C(=O)N[C@@H](CCC(N)=O)C(=O)N[C@@H](CC(=O)O)C(=O)N[C@@H](Cc1ccccc1)C(=O)N[C@H](C(=O)N[C@@H](CCCCNC(=O)CC[C@H](NC(=O)CC[C@H](NC(=O)CC[C@H](NC(=O)CCCCCCCCCCCCCCCCC(=O)O)C(=O)O)C(=O)O)C(=O)O)C(=O)N[C@@H](Cc1c[nH]c2ccccc12)C(=O)N[C@@H](CC(C)C)C(=O)N[C@@H](CC(C)C)C(=O)N[C@@H](CO)C(=O)N[C@H](C(=O)O)[C@@H](C)O)C(C)C [Example 92, N^ε24-[(4S)-4-carboxy-4-[[(4S)-4-carboxy-4-[[(4S)-4-carboxy-4-(17-carboxyheptadecanoylamino)butanoyl]amino]butanoyl]amino]butanoyl]-[Arg12,Ala16,Lys24,Leu27,Ser28]-Glucagon] (H-HSQGTFTSDYSRYLDARRAQDFVK([γGlu-γGlu-γGlu-C18 diacid])WLLST-OH)	0.066 nM	6.5%
CC(C)C[C@H](NC(=O)[C@H](Cc1ccc(O)cc1)NC(=O)[C@H](CCCNC(=N)N)NC(=O)[C@H](CO)NC(=O)[C@H](Cc1ccc(O)cc1)NC(=O)[C@H](CC(=O)O)NC(=O)[C@H](CO)NC(=O)[C@@H](NC(=O)[C@H](Cc1ccccc1)NC(=O)[C@@H](NC(=O)CNC(=O)[C@H](CCC(N)=O)NC(=O)[C@H](CO)NC(=O)[C@@H](N)Cc1c[nH]cn1)[C@@H](C)O)[C@@H](C)O)C(=O)N[C@@H](CC(=O)O)C(=O)N[C@@H](C)C(=O)N[C@@H](CCCNC(=N)N)C(=O)N[C@@H](CCCNC(=N)N)C(=O)N[C@@H](C)C(=O)N[C@@H](CCC(N)=O)C(=O)N[C@@H](CC(=O)O)C(=O)N[C@@H](Cc1ccccc1)C(=O)N[C@H](C(=O)N[C@@H](CCCCNC(=O)CC[C@H](NC(=O)CC[C@H](NC(=O)COCCOCCNC(=O)COCCOCCNC(=O)CC[C@H](NC(=O)CCCCCCCCCCCCCCC(=O)O)C(=O)O)C(=O)O)C(=O)O)C(=O)N[C@@H](Cc1c[nH]c2ccccc12)C(=O)N[C@@H](CC(C)C)C(=O)N[C@@H](CC(C)C)C(=O)N[C@@H](CO)C(=O)N[C@H](C(=O)O)[C@@H](C)O)C(C)C [Example 84, N^ε24-[(4S)-4-carboxy-4-[[(4S)-4-carboxy-4-[[2-[2-[2-[[2-[2-[2-[[(4S)-4-carboxy-4-(15-carboxypentadecanoylamino)butanoyl]amino]ethoxy]ethoxy]acetyl]amino]ethoxy]ethoxy]acetyl]amino]butanoyl]amino]butanoyl]-[Arg12,Ala16,Lys24,Leu27,Ser28]-Glucagon] (H-HSQGTFTSDYSRYLDARRAQDFVK([γGlu-γGlu-AEEA-AEEA-γGlu-C16 diacid])WLLST-OH)	0.022 nM	10.7%
CC(C)C[C@H](NC(=O)[C@H](Cc1ccc(O)cc1)NC(=O)[C@H](CCCNC(=N)N)NC(=O)[C@H](CO)NC(=O)[C@H](Cc1ccc(O)cc1)NC(=O)[C@H](CC(=O)O)NC(=O)[C@H](CO)NC(=O)[C@@H](NC(=O)[C@H](Cc1ccccc1)NC(=O)[C@@H](NC(=O)CNC(=O)[C@H](CCC(N)=O)NC(=O)[C@H](CO)NC(=O)[C@@H](N)Cc1c[nH]cn1)[C@@H](C)O)[C@@H](C)O)C(=O)N[C@@H](CC(=O)O)C(=O)N[C@@H](C)C(=O)N[C@@H](CCCNC(=N)N)C(=O)N[C@@H](CCCNC(=N)N)C(=O)N[C@@H](C)C(=O)N[C@@H](CCC(N)=O)C(=O)N[C@@H](CC(=O)O)C(=O)N[C@@H](Cc1ccccc1)C(=O)N[C@H](C(=O)N[C@@H](CCCCNC(=O)CC[C@H](NC(=O)CC[C@H](NC(=O)CC[C@H](NC(=O)CC[C@H](NC(=O)CCCCCCCCCCCCCCCCC(=O)O)C(=O)O)C(=O)O)C(=O)O)C(=O)O)C(=O)N[C@@H](Cc1c[nH]c2ccccc12)C(=O)N[C@@H](CC(C)C)C(=O)N[C@@H](CC(C)C)C(=O)N[C@@H](CO)C(=O)N[C@H](C(=O)O)[C@@H](C)O)C(C)C [Example 96, N^ε24-[(4S)-4-carboxy-4-[[(4S)-4-carboxy-4-[[(4S)-4-carboxy-4-[[(4S)-4-carboxy-4-(17-carboxyheptadecanoylamino)butanoyl]amino]butanoyl]amino]butanoyl]amino]butanoyl]-[Arg12,Ala16,Lys24,Leu27,Ser28]-Glucagon] (H-HSQGTFTSDYSRYLDARRAQDFVK([γGlu-γGlu-γGlu-γGlu-C18 diacid])WLLST-OH; N-terminus and C-terminus assumed)	0.062 nM	4.5%

From patent publication US9486506B2 (Novo Nordisk A/S, priority 2011, dated 2016)
